Values quoted from earlier work, collected in US20200357489A1, “DEEP LEARNING-BASED QUICK AND PRECISE HIGH-THROUGHPUT DRUG SCREENING SYSTEM” (Shanghai Tongji Hospital, priority 2018, published 2020).
Where two headings read alike, the source gives them in different places.

Structure (SMILES)	efficacy classification (A549 cells; 50 μg/ml VP16)	efficacy classification (A549 cells; 100 μg/ml VP16)	efficacy classification (A549 cells; 200 μg/ml VP16)	efficacy classification (HepG2 cells; 5 μg/ml Cur)	efficacy classification (HepG2 cells; 10 μg/ml Cur)	efficacy classification (HepG2 cells; 20 μg/ml Cur)
COc1cc([C@@H]2c3cc4c(cc3[C@@H](O[C@@H]3O[C@@H]5CO[C@@H](C)O[C@H]5[C@H](O)[C@H]3O)[C@H]3COC(=O)[C@H]23)OCO4)cc(OC)c1O [VP16, etoposide]	Low effcacy	Moderate	High efficacy			
COc1cc(/C=C/C(=O)CC(=O)/C=C/c2ccc(O)c(OC)c2)ccc1O [Cur, curcumin]				Low effcacy	Moderate	High efficacy
